In patent publication US20220380375A1, “SUBSTITUTED AROMATIC FUSED RING DERIVATIVE AND COMPOSITION COMPRISING SAME, AND USE THEREOF” (Shenzhen TargetRx, Inc., priority 2019, published 2022):
Marks after values point to notes of the source that are not given here.

Columns and labels:
[1] = test system: Ba/F3 KIF5B-RET cell line tumor model; assay: Anti-tumor effect assay in Ba/F3 KIF5B-RET cell line tumor model (allograft); type: in vivo, female NPSG mice; conditions: for Tumor volume (x ± S), Day 0 of administration: 10 mg/kg p.o. QD × 14, day 0 (baseline); for TGI (%), Day 14 of administration / Tumor volume (x ± S), Day 14 of administration: 10 mg/kg p.o. QD × 14, day 14
Text: (§1) The efficacy of compounds of the present disclosure in female NPSG mouse allograft models of two B-cell lymphoma cell lines Ba/F3 KIF5B-RET and Ba/F3 KIF5B-RET^G810R was verified.
(§2) Assay animals: Female NPSG mice, 6-8 weeks old (age of mice at the time of tumor cell inoculation), weighing 18-20 g, 60 mice, purchased from Shanghai Jihui Laboratory Animal Care Co., Ltd.
(§3) Assay methods: 1) Ba/F3 KIF5B-RET and Ba/F3 KIF5B-RET^G810R cells were respectively resuscitated and Cultured in vitro, and 3×10^7 cells of each type were obtained. 2) 60 female NPSG mice aged 6-8 weeks were adaptively bred for 1 week and then weighed. 4) After inoculation, tumor volume and body weight were measured once a week. When average tumor volume reached about […], mice inoculated with each type of Ba/F3 cells were randomly divided into 7 groups according to tumor volume and body weight, with 3 mice in each group. The administration was started immediately after grouping. The date of start of administration was regarded as day 0. Informations on administration and grouping were shown in Tables 5 and 6.5) After the start of the administration, the body weight and tumor volume of mice were measured twice a week. 6) After the end of the administration, the assay was over.
(§4) Assay observation and data collection: After tumor inoculation, morbidity and death of animals were observed every working day. Daily observation included tumor growth and effects of drugs on laboratory animals, such as changes in activity, changes in feeding and drinking, weight loss, changes in appearance of hair and eye, death and other clinical symptoms. Formula for calculating tumor volume is: tumor volume (mm^3)=½×(a×b^2) (wherein a represents the long diameter and b represents the short diameter)
(§5) Relative tumor inhibition rate TGI (%): TGI %=(1−T/C)×100%. T/C % is relative tumor proliferation rate, that is, a percentage value of relative tumor volume between treatment group and control group at a certain point in time. T and C are relative tumor volume (RTV, that is, the […] tumor volume at this time point and tumor volume at day 0) of treatment group and control group at a certain point in time, respectively.
(§6) Statistical analysis: For pairwise comparison, a T-Test analysis method was used, and for comparison of three or more groups, a One-Way ANOVA method was used. For comparison of potential synergistic effects, a Two-way ANOVA was used. SPSS 24.0 was used for all data. A p value less than 0.05 was considered a significant difference.

[2] = test system: Ba/F3 KIF5B-RET^G810R cell line tumor model; assay: Anti-tumor effect assay in Ba/F3 KIF5B-RET^G810R cell line tumor model (allograft); type: in vivo, female NPSG mice; conditions: for Tumor volume (x ± S), Day 0 of administration / Tumor volume (x ± S), Day 13 of administration / TGI (%), Day 13 of administration: Ba/F3 KIF5B-RET^G810R model; for Tumor volume (x ± S), Day 0 of administration: 25 mg/kg p.o. QD × 13, day 0 (baseline); for Tumor volume (x ± S), Day 13 of administration / TGI (%), Day 13 of administration: 25 mg/kg p.o. QD × 13, day 13; for TGI (%), Day 13 of administration: TGI more than 100% = decrease in tumor volume; for relative tumor inhibition rate TGI (%): day 13 of administration, AD80 group 25 mg/kg
Text: as §1, §2, §3, §4, §5, §6

[3] = Safety assay (body weight, tolerability) in Ba/F3 KIF5B-RET^G810R cell line tumor model; type: in vivo; conditions: for Number of animals at the beginning/end of assay: 25 mg/kg p.o. QD × 13; for Average weight g (x ± S), Day 0 of administration: 25 mg/kg p.o. QD × 13, day 0 (baseline); for Average weight g (x ± S), Day 13 of administration / Weight change rate (%), Day 13 of administration: 25 mg/kg p.o. QD × 13, day 13; for tolerability (weight loss, drug withdrawal, drug toxicity): during the treatment
Method: as §3, §4

[4] = target: T1, RET V804M (Homo sapiens, UniProt P07949, V804M); assay: Inhibition of kinase, RET V804M (HTRF KinEASE-TK); type: biochemical
T1 construct: purchased Signalchem R02—12GG
Method: (§7) Ret wt (Carna, Cat. No. 08-159-10 ug), RET (V804M), Active (Signalchem. Cat. No. R02—12GG), HTRF KinEASE-TK kit (Cisbio, Cat. No.62TK0PEC), CEP-32496 (MCE, Cat. No. HY-15200), ATP (Sigma. Cat. No. A7699), DMSO (Sigma, Cat. No. D8418-1L), DTT (Sigma, Cat. No. D0632), MgCl2(Sigma, Cat. No. M1028), 384-well plate (Labcyte, Cat. No. P-05525-BC).
(§8) Formulation of compound: The test compounds were dissolved in DMSO to obtain 10 mM stock solutions, which were then serially diluted 3-fold in DMSO to obtain 10 concentrations. At the time of addition, the compound was further diluted 10-fold with buffer.
(§9) In 5×kinase buffer A, Ret wt or RET V804M kinase was mixed with different concentrations of compounds prepared by pre-dilution for 10 minutes. Each concentration was tested in duplicate. The corresponding substrate and ATP were added, and reaction was performed at room temperature for 20 minutes (negative and positive controls were provided: the negative control was a blank control, and the positive control was CEP-32496 (Agerafenib)). After completion of the reaction, detection reagents (reagents in the HTRF KinEASE-TK kit) were added. After incubating for 30 minutes at room temperature, enzyme activity in the presence of various concentrations of the compounds of the present disclosure was determined by Envision microplate reader, and inhibitory activity of different concentrations of the compounds on enzyme activity was calculated. The inhibitory activity of different concentrations of the compounds on enzyme activity was fitted by Graphpad 5.0 software, and the IC50 value was calculated.

[5] = Safety assay (body weight, tolerability) in Ba/F3 KIF5B-RET cell line tumor model; type: in vivo; conditions: for Number of animals at the beginning/end of assay: 10 mg/kg p.o. QD × 14; for Average weight g (x ± S), Day 0 of administration: 10 mg/kg p.o. QD × 14, day 0 (baseline); for Average weight g (x ± S), Day 14 of administration / Weight change rate (%), Day 14 of administration: 10 mg/kg p.o. QD × 14, day 14; for tolerability (weight loss, drug withdrawal, drug toxicity): during the treatment
Method: as §3, §4

[6] = target: T2, Ret wt (Homo sapiens, UniProt P07949); assay: Inhibition of kinase, Ret wt (HTRF KinEASE-TK); type: biochemical
T2 construct: purchased Carna 08-159-10 ug
Method: as §7, §8, §9

T1 sequence (P07949 29-1114 V804M): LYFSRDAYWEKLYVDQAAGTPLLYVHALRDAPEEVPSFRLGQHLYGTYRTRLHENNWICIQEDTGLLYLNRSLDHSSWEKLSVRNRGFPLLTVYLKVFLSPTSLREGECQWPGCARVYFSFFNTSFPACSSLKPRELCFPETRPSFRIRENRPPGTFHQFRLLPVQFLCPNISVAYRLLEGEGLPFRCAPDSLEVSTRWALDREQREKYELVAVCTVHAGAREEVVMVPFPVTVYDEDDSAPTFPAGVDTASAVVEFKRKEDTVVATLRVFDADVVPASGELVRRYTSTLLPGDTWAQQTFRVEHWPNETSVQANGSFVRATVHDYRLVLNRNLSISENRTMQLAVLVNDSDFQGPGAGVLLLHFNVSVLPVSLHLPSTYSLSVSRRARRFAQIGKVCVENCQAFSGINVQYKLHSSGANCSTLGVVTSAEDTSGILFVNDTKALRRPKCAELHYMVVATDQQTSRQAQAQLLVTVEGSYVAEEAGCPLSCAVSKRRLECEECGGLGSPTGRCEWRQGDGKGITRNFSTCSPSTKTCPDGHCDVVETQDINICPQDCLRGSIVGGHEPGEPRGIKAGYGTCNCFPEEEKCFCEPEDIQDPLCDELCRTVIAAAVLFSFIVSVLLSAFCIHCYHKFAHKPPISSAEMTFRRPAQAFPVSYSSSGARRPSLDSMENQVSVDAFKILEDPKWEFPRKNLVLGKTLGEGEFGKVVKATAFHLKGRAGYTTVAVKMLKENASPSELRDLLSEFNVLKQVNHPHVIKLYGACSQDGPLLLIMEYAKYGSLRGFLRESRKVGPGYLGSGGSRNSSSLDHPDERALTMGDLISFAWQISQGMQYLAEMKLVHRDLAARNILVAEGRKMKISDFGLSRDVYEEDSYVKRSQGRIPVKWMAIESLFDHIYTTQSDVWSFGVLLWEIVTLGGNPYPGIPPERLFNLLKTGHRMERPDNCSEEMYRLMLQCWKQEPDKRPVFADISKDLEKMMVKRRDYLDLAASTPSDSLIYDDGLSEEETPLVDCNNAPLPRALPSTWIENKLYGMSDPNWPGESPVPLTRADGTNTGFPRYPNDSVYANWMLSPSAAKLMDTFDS
T2 sequence (P07949 29-1114): as the sequence (P07949 29-1114 V804M) above, with M776V counted along it

Structure (SMILES) | Tumor volume (x ± S), Day 0 of administration [1] [mm^3] | TGI (%), Day 14 of administration [1] [%] | Tumor volume (x ± S), Day 14 of administration [1] [mm^3] | Tumor volume (x ± S), Day 0 of administration [2] [mm^3] | Tumor volume (x ± S), Day 13 of administration [2] [mm^3] | TGI (%), Day 13 of administration [2] | relative tumor inhibition rate TGI (%) [2] [%] | Number of animals at the beginning/end of assay [3] | Average weight g (x ± S), Day 0 of administration [3] [g] | Average weight g (x ± S), Day 13 of administration [3] [g] | Weight change rate (%), Day 13 of administration [3] [%] | tolerability (weight loss, drug withdrawal, drug toxicity) [3] | IC50 [4] [nM] | Number of animals at the beginning/end of assay [5] | Average weight g (x ± S), Day 0 of administration [5] [g] | Average weight g (x ± S), Day 14 of administration [5] [g] | Weight change rate (%), Day 14 of administration [5] [%] | tolerability (weight loss, drug withdrawal, drug toxicity) [5] | IC50 [6] [nM]
CC(C)n1cc(-c2ccc(CC(=O)Nc3cc(C(C)(C)C(F)(F)F)on3)cc2)c2c(N)ncnc21 [Compound T-3, 2-(4-(4-amino-7-isopropyl-7H-pyrrolo[2,3-d]pyrimidin-5-yl)phenyl)-N-(5-(1,1,1-trifluoro-2-methylprop-2-yl)isoxazol-3-yl)acetamide] | 104 ± 10.44 | 96.3 | 153.7 ± 13.22 | 102 ± 7.77 | 132.7 ± 11.78 | 91.6% | 91.6 | 3/3 | 19.9 ± 1.18 | 23.1 ± 1.49 | 16.01 | well tolerated | 1 to 10 | 3/3 | 19.6 ± 0.84 | 21.5 ± 0.7 | 9.8 | well tolerated | ≤ 0.5
CC(C)n1nc(-c2ccc(CC(=O)Nc3cc(C(C)(C)C(F)(F)F)on3)c(F)c2)c2c(N)ncnc21 [Compound T-6, 2-(4-(4-amino-1-isopropyl-1H-pyrazolo[3,4-d]pyrimidin-3-yl)-2-fluorophenyl)-N-(5-(1,1,1-trifluoro-2-methylprop-2-yl)isoxazol-3-yl)acetamide] | 104 ± 3.61 | 99.7 | 108.7 ± 31.33 | 93 ± 8.33 | 89.7 ± 4.48 | 100.9%# | 100.9 | 3/3 | 19.4 ± 0.66 | 22.4 ± 0.46 | 15.75 | well tolerated | 0.5 to 1 | 3/3 | 19.3 ± 0.57 | 21 ± 0.91 | 8.8 | well tolerated | ≤ 0.5
